These compounds were tested against T1, human recombinant his-tagged HSP90α (Homo sapiens, UniProt P07900) (assay: HSP90 enzyme assay (HTRF, competition with biotinylated Geldanamycin)). Settings: IC50 range; read-out: Enzyme Assay.
T1 construct: purchased Prospec Technogene #HSP90
Assay type: binding
Source text: An HTRF (homogeneous time resolved fluorescence) assay is used to measure the interaction of the compounds with HSP90. The assay measures binding of biotinylated Geldanamycin (bio-GM; Biomol, #EI-341, lot: A9199a) to human recombinant his-tagged HSP90α (HSP90; Prospec Technogene, #HSP90, lot: 260HSP9001). A signal is generated by fluorescence resonance energy transfer from an Europium-cryptate labeled anti-his antibody (anti-his-K; Cisbio International, #61HISKLA, lot: 33V) via the HSP90-GM-biotin complex to a fluorescence acceptor (allophycocyanin) linked to streptavidin (SA-XL; Cisbio International, #610SAXLB, lot: 089).
Unlabeled GM or compounds compete with the bio-GM for binding to HSP90 resulting in reduced fluorescence energy transfer/assay signal.
A preformed (1 hour incubation) complex of HSP90 with the anti-his-K is added to the compound solution in a 384 well microplate (Corning, #3710) and incubated for 15 minutes. A preformed (1 hour incubation) complex of bio-GM with the SA-XL is added to the wells and incubated for 20 hours. All incubations are performed at room temperature. The final assay volume is 50 μl/well. The final concentrations in the assay are: 50 mM Hepes pH 7.3, 50 mM NaCl, 100 mM KF, 1 mM EDTA, 1 mM DTT, 0.1% Triton-X-100, […] HSP90, 40 nM SA-XL, 40 nM bio-GM. Test compounds are dissolved in DMSO, prediluted in assay buffer and tested at a final concentration between 5000 nM and 0.3 nM. The resulting DMSO concentration is 0.5% and included in all controls. High controls are without test compounds, low controls without test compounds, without HSP90 and without bio-GM. As a reference inhibitor unlabeled GM is used in the same concentrations as the test compounds.
Inhibition is calculated compared to the assay controls using an Excel spreadsheet (Microsoft). IC50 values are calculated by non-linear least squares fitting to the standard dose-response model using GraphPad Prism (GraphPad Software Inc).
With `CC(C)c1cc(C(=O)N2CCC(NC(C)(C)C(=O)O)CC2)c(O)cc1O` [Example 97, N-(1-{[2,4-dihydroxy-5-(propan-2-yl)phenyl]carbonyl}piperidin-4-yl)-2-methylalanine] the IC50 was less than 100 nM.
`CC(C)C[C@H](NCc1ccc(CN(C)C(=O)c2cc(C(C)C)c(O)cc2O)cc1)C(=O)O` [Example 77, N-(4-{[{[2,4-dihydroxy-5-(propan-2-yl)phenyl]carbonyl}(methyl)amino]methyl}benzyl)-L-leucine] gave an IC50 of less than 100 nM.
`CC(C)c1cc(C(=O)N2CCC(CN[C@H](C(=O)O)c3ccccc3)CC2)c(O)cc1O` [Example 120, (2S)-{[(1-{[2,4-dihydroxy-5-(propan-2-yl)phenyl]carbonyl}piperidin-4-yl)methyl]amino}(phenyl)ethanoic acid] showed an IC50 of less than 100 nM.
`CC(C)c1cc(C(=O)N2CCC(CNC(C)(C)C(=O)O)CC2)c(O)cc1O` [Example 117, N-[(1-{[2,4-dihydroxy-5-(propan-2-yl)phenyl]carbonyl}piperidin-4-yl)methyl]-2-methylalanine] showed an IC50 of less than 100 nM.
With `CC(C)C[C@H](NCc1ccc2c(c1)CN(C(=O)c1cc(C(C)C)c(O)cc1O)C2)C(=O)O` [Example 78, N-[(2-{[2,4-dihydroxy-5-(propan-2-yl)phenyl]carbonyl}-2,3-dihydro-1H-isoindol-5-yl)methyl]-L-leucine] the IC50 was less than 100 nM.
In the case of `CC(C)C[C@@H](NCC1CCN(C(=O)c2cc(C(C)C)c(O)cc2O)CC1)C(=O)O` [Example 108, N-[(1-{[2,4-dihydroxy-5-(propan-2-yl)phenyl]carbonyl}piperidin-4-yl)methyl]-D-leucine], the IC50 is reported as less than 100 nM.
Compound `CC(C)c1cc(C(=O)N(C)Cc2cccc(CNC(C)(C)C(=O)O)c2)c(O)cc1O` [Example 87, N-(3-{[{[2,4-dihydroxy-5-(propan-2-yl)phenyl]carbonyl}(methyl)amino]methyl}benzyl)-2-methylalanine] has an IC50 of less than 100 nM.
For `CC(C)c1cc(C(=O)N2Cc3ccc(CN[C@@H](C)C(=O)O)cc3C2)c(O)cc1O` [Example 82, N-[(2-{[2,4-dihydroxy-5-(propan-2-yl)phenyl]carbonyl}-2,3-dihydro-4H-isoindol-5-yl)methyl]-L-alanine], the IC50 was less than 100 nM.
`CC(C)c1cc(C(=O)N(C)Cc2cccc(CNC3(C(=O)O)CCCC3)c2)c(O)cc1O` [Example 88, 1-[(3-{[{[2,4-dihydroxy-5-(propan-2-yl)phenyl]carbonyl}(methyl)amino]methyl}benzyl)amino]cyclopentanecarboxylic acid] gave an IC50 of less than 100 nM.
Work on `CCCC[C@H](NC1CCN(C(=O)c2cc(C(C)C)c(O)cc2O)CC1)C(=O)O` [Example 105, N-(1-{[2,4-dihydroxy-5-(propan-2-yl)phenyl]carbonyl}piperidin-4-yl)-L-norleucine] yielded an IC50 of less than 100 nM.
In the case of `CC(C)c1cc(C(=O)N(C)Cc2ccc(CN[C@H](C(=O)O)c3ccccc3)cc2)c(O)cc1O` [Example 85, (2S)-[(4-{[{[2,4-dihydroxy-5-(propan-2-yl)phenyl]carbonyl}(methyl)amino]methyl}benzyl)amino](phenyl)ethanoic acid], the IC50 is reported as less than 100 nM.
For `CC(C)C[C@H](NCc1cccc(CN(C)C(=O)c2cc(C(C)C)c(O)cc2O)c1)C(=O)O` [Example 84, N-(3-{[{[2,4-dihydroxy-5-(propan-2-yl)phenyl]carbonyl}(methyl)amino]methyl}benzyl)-L-leucine], the IC50 was less than 100 nM.
`CC(C)c1cc(C(=O)N(C)Cc2ccc(CNC(C)(C)C(=O)O)cc2)c(O)cc1O` [Example 86, N-(4-{[{[2,4-dihydroxy-5-(propan-2-yl)phenyl]carbonyl}(methyl)amino]methyl}benzyl)-2-methylalanine] was tested, and the IC50 was less than 100 nM.
Compound `CC(C)C[C@@H](NC1CCN(C(=O)c2cc(C(C)C)c(O)cc2O)CC1)C(=O)O` [Example 109, N-(1-{[2,4-dihydroxy-5-(propan-2-yl)phenyl]carbonyl}piperidin-4-yl)-D-leucine] has an IC50 greater than 1000 nM.
For `CC(C)c1cc(C(=O)N2CCC(CCN[C@H](C(=O)O)C(C)C)CC2)c(O)cc1O` [Example 121, N-[2-(1-{[2,4-dihydroxy-5-(propan-2-yl)phenyl]carbonyl}piperidin-4-yl)ethyl]-L-valine], the IC50 was less than 100 nM.
Work on `CC(C)C[C@H](NCCCc1ccc2c(c1)CN(C(=O)c1cc(C(C)C)c(O)cc1O)C2)C(=O)O` [Example 80, N-[3-(2-{[2,4-dihydroxy-5-(propan-2-yl)phenyl]carbonyl}-2,3-dihydro-1H-isoindol-5-yl)propyl]-L-leucine] yielded an IC50 of less than 100 nM.
In the case of `CC(C)c1cc(C(=O)N2CCC(N[C@H](C(=O)OC(C)(C)C)C3CCCCC3)CC2)c(O)cc1O` [Example 15, tert-butyl (2S)-cyclohexyl[(1-{[2,4-dihydroxy-5-(propan-2-yl)phenyl]carbonyl}piperidin-4-yl)amino]ethanoate], the IC50 is reported as 100 to 1000 nM.
`CC(C)C[C@H](NCC1CCN(C(=O)c2cc(C(C)C)c(O)cc2O)CC1)C(=O)O` [Example 103, N-[(1-{[2,4-dihydroxy-5-(propan-2-yl)phenyl]carbonyl}piperidin-4-yl)methyl]-L-leucine] was tested, and the IC50 was less than 100 nM.
Work on `CC(C)c1cc(C(=O)N2CCC(CCN[C@H](C(=O)OC(C)(C)C)c3ccccc3)CC2)c(O)cc1O` [Example 50, tert-butyl (2S)-{[2-(1-{[2,4-dihydroxy-5-(propan-2-yl)phenyl]carbonyl}piperidin-4-yl)ethyl]amino}(phenyl)ethanoate] yielded an IC50 of less than 100 nM.
`CC(C)c1cc(C(=O)N2CCC(CCN[C@@H](Cc3ccccc3)C(=O)O)CC2)c(O)cc1O` [Example 111, N-[2-(1-{[2,4-dihydroxy-5-(propan-2-yl)phenyl]carbonyl}piperidin-4-yl)ethyl]-L-phenylalanine] gave an IC50 of less than 100 nM.
Compound `CC(C)c1cc(C(=O)N2CCC(N[C@@H](CC3CCCCC3)C(=O)O)CC2)c(O)cc1O` [Example 110, 3-cyclohexyl-N-(1-{[2,4-dihydroxy-5-(propan-2-yl)phenyl]carbonyl}piperidin-4-yl)-L-alanine] has an IC50 of less than 100 nM.
In the case of `CC(C)c1cc(C(=O)N2CCC(CCN[C@@H](COC(C)(C)C)C(=O)OC(C)(C)C)CC2)c(O)cc1O` [Example 53, tert-butyl O-tert-butyl-N-[2-(1-{[2,4-dihydroxy-5-(propan-2-yl)phenyl]carbonyl}piperidin-4-yl)ethyl]-L-serinate], the IC50 is reported as less than 100 nM.
For `CC(C)c1cc(C(=O)N2CCC(CCN[C@@H](COC(C)(C)C)C(=O)O)CC2)c(O)cc1O` [Example 115, O-tert-butyl-N-[2-(1-{[2,4-dihydroxy-5-(propan-2-yl)phenyl]carbonyl}piperidin-4-yl)ethyl]-L-serine], the IC50 was less than 100 nM.
“N-[2-(1-{[2,4-dihydroxy-5-(propan-2-yl)phenyl]carbonyl}piperidin-4-yl)ethyl]-2-methylalanine [Example 114]” was tested, and the IC50 was less than 100 nM.
`CC(C)c1cc(C(=O)N2CCC(N[C@@H](C)C(=O)O)CC2)c(O)cc1O` [Example 100, N-(1-{[2,4-dihydroxy-5-(propan-2-yl)phenyl]carbonyl}piperidin-4-yl)-L-alanine] was tested, and the IC50 was less than 100 nM.
`CC(C)c1cc(C(=O)N2CCC(CCN[C@@H](C)C(=O)OC(C)(C)C)CC2)c(O)cc1O` [Example 43, tert-butyl N-[2-(1-{[2,4-dihydroxy-5-(propan-2-yl)phenyl]carbonyl}piperidin-4-yl)ethyl]-L-alaninate] gave an IC50 of less than 100 nM.
Work on `CC(C)c1cc(C(=O)N(C)Cc2ccc(CCNC(C)(C)C(=O)O)cc2)c(O)cc1O` [Example 91, N-[2-(4-{[{[2,4-dihydroxy-5-(propan-2-yl)phenyl]carbonyl}(methyl)amino]methyl}phenyl)ethyl]-2-methylalanine] yielded an IC50 of less than 100 nM.
Compound `CC(C)c1cc(C(=O)N2CCC(CN[C@@H](Cc3ccccc3)C(=O)O)CC2)c(O)cc1O` [Example 107, N-[(1-{[2,4-dihydroxy-5-(propan-2-yl)phenyl]carbonyl}piperidin-4-yl)methyl]-L-phenylalanine] has an IC50 of less than 100 nM.
`CC(C)C[C@H](NC[C@@H]1CCCN1C(=O)c1cc(C(C)C)c(O)cc1O)C(=O)O` [Example 94, N-{[(2S)-1-{[2,4-dihydroxy-5-(propan-2-yl)phenyl]carbonyl}pyrrolidin-2-yl]methyl}-L-leucine] gave an IC50 of 100 to 1000 nM.
`CC(C)c1cc(C(=O)N2Cc3ccc(CCCNC4(C(=O)O)CCCC4)cc3C2)c(O)cc1O` [Example 90, 1-{[3-(2-{[2,4-dihydroxy-5-(propan-2-yl)phenyl]carbonyl}-2,3-dihydro-1H-isoindol-5-yl)propyl]amino}cyclopentanecarboxylic acid] gave an IC50 of less than 100 nM.
For `CC(C)c1cc(C(=O)N2CCC(CN[C@H](C(=O)O)C3CCCCC3)CC2)c(O)cc1O` [Example 116, (2S)-cyclohexyl{[(1-{[2,4-dihydroxy-5-(propan-2-yl)phenyl]carbonyl}piperidin-4-yl)methyl]amino}ethanoic acid], the IC50 was less than 100 nM.
Compound `CC(C)c1cc(C(=O)N2CCC(CCN[C@@H](C)C(=O)O)CC2)c(O)cc1O` [Example 92, N-[2-(1-{[2,4-dihydroxy-5-(propan-2-yl)phenyl]carbonyl}piperidin-4-yl)ethyl]-L-alanine] has an IC50 of less than 100 nM.

Source: patent US9321718B2 (CHROMA THERAPEUTICS LTD., priority 2010, dated 2016)
